Data: patent US20240150360A1 (THE REGENTS OF THE UNIVERSITY OF MICHIGAN, priority 2021, published 2024)
Read-outs that look alike come from different tables or passages of the source.

Legend:
CBP = molecular target: T1, CBP (Homo sapiens, UniProt Q92793); experiment: CBP degradation in 22Rv1 cells (5 h); assay type: cell-based; conditions: for Dmax: 22Rv1, 5 h, read-out: CBP Degradation (22Rv1, 5 h) DCmax
T1 construct: endogenous in cells; host or cells: 22Rv1 (ATCC CRL-2505) human prostate cancer cells
T1 sequence (Q92793 whole entry): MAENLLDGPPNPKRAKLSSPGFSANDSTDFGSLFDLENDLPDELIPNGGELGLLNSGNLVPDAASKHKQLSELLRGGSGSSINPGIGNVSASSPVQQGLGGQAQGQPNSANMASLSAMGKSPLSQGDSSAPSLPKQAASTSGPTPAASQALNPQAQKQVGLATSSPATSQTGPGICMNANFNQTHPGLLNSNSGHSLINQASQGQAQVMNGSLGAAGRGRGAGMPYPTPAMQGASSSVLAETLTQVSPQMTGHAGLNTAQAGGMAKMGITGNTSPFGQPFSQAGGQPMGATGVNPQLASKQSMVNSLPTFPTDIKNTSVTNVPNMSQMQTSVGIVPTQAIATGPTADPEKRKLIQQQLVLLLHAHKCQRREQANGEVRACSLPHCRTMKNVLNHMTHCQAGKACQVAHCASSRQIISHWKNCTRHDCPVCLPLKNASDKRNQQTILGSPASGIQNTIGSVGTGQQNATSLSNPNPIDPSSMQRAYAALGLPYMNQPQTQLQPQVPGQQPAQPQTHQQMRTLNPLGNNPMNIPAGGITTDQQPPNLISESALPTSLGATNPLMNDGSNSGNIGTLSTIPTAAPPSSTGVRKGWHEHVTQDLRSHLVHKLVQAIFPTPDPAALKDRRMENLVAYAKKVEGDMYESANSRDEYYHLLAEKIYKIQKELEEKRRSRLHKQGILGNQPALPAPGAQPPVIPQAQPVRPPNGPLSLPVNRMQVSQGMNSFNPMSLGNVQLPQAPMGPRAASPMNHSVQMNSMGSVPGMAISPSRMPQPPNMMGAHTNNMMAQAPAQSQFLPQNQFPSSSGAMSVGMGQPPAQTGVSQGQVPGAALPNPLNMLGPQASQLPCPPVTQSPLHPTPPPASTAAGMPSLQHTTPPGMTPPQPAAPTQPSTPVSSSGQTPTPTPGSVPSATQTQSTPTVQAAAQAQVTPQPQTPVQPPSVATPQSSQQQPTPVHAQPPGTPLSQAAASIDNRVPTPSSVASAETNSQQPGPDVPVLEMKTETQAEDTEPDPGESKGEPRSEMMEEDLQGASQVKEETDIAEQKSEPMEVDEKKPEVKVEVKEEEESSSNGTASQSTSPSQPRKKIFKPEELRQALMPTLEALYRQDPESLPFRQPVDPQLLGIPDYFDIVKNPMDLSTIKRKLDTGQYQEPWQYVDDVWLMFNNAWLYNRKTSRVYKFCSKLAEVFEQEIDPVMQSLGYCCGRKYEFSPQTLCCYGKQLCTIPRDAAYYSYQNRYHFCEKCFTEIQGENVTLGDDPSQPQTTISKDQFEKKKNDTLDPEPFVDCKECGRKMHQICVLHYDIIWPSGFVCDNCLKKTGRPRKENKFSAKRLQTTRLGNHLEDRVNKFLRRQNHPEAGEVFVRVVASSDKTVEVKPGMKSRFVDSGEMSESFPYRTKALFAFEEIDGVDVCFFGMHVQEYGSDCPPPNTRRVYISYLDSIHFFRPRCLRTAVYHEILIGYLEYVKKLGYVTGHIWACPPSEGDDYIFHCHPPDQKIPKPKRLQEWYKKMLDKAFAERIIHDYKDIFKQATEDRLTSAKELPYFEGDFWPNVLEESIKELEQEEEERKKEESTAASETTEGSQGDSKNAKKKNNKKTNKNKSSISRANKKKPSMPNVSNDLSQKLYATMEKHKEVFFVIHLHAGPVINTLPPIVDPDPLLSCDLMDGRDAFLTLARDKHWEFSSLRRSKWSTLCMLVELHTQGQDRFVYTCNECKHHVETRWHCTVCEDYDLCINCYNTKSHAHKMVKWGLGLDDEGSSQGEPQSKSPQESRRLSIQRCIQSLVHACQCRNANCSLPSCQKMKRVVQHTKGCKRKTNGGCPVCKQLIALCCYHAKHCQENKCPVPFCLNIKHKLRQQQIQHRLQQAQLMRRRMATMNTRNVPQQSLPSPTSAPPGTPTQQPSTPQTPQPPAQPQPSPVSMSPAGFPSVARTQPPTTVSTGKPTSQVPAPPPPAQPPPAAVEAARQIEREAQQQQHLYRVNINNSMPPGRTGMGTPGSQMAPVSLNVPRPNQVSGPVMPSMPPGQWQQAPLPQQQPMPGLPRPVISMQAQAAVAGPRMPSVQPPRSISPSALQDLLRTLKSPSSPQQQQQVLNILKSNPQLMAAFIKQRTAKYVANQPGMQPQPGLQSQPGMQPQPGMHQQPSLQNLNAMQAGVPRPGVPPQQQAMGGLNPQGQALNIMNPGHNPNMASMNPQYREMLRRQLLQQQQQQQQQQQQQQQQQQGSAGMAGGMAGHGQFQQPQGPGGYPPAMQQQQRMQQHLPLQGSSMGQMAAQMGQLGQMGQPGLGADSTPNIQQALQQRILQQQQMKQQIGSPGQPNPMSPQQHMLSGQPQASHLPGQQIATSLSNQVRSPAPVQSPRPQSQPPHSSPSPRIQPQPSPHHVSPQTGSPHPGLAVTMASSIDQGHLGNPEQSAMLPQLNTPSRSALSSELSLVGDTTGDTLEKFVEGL
Excerpt: (§1) Biological Assays. […] Cells with 3-8 passages after purchase were used in experiments.

P300 = molecular target: T2, P300 (Homo sapiens, UniProt Q09472); experiment: P300 degradation in 22Rv1 cells (5 h); assay type: cell-based; conditions: for Dmax: read-out: P300 Degradation (22Rv1, 5 h) DCmax
T2 construct: endogenous in cells; host or cells: 22Rv1 (ATCC CRL-2505) human prostate cancer cells
T2 sequence (Q09472 whole entry): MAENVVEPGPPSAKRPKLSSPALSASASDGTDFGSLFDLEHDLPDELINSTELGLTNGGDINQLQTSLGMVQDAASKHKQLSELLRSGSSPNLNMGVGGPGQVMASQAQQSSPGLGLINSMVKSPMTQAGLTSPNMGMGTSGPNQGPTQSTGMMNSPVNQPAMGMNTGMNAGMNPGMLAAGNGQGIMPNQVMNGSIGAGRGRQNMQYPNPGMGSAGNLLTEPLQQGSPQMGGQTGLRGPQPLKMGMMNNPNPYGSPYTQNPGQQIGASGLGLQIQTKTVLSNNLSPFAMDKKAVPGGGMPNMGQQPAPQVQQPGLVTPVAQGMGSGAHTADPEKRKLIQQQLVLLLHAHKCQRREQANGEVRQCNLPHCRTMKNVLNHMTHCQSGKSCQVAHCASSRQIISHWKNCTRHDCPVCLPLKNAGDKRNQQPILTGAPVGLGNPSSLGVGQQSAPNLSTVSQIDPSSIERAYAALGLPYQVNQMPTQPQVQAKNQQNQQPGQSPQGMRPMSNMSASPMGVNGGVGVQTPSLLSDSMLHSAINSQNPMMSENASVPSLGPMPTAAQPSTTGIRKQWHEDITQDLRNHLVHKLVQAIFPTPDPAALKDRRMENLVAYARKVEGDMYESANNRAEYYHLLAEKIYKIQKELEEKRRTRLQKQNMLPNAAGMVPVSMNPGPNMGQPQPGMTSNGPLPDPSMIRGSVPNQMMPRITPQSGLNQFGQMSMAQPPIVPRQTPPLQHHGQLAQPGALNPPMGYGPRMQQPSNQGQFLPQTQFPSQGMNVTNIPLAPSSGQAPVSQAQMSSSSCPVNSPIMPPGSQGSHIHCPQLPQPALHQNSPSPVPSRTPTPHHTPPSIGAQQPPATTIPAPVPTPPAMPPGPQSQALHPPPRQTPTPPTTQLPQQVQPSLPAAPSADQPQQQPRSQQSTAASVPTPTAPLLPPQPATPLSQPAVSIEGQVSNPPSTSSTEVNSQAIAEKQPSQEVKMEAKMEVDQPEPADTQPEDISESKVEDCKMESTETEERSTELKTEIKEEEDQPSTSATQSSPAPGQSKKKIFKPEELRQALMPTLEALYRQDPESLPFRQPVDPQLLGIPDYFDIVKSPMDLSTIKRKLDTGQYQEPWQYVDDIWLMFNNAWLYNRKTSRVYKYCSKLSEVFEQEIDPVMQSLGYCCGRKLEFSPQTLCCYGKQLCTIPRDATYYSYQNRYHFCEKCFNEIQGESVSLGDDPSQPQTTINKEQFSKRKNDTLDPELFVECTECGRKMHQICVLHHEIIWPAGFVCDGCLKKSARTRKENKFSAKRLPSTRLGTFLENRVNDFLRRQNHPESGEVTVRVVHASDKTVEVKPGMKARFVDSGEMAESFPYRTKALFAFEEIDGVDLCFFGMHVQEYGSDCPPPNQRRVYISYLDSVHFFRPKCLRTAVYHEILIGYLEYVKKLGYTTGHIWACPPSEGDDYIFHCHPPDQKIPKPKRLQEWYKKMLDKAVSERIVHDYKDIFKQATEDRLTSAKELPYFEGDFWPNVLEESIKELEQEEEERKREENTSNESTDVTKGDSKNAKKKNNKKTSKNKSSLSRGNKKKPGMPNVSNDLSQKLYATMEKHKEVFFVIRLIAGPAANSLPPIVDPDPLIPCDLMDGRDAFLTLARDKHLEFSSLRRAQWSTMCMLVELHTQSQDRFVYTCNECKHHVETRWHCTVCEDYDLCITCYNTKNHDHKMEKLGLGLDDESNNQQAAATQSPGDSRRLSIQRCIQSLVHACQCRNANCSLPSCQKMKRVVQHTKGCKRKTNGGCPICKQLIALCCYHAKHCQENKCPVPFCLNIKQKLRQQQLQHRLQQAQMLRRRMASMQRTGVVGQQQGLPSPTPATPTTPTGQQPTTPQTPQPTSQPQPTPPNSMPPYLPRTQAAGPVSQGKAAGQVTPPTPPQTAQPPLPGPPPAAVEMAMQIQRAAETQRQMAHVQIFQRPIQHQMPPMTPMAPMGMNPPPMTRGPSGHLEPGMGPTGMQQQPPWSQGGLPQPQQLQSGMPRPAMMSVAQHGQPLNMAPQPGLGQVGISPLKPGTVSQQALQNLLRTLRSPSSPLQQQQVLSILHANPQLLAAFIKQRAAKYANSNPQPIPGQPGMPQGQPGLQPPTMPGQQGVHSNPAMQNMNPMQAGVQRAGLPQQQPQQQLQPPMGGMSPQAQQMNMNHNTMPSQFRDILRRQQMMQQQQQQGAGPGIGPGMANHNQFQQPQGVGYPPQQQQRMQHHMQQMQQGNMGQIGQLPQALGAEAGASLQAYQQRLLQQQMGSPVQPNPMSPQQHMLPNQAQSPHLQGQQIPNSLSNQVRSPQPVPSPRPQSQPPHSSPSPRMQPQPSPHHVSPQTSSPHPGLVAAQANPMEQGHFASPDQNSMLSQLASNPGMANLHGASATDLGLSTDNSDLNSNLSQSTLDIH
Excerpt: as §1

22Rv1 cells = experiment: Cell growth inhibition assay (CellTiter-Glo) in 22Rv1; assay type: cell-based, human; conditions: Homo sapiens, 22Rv1 cells, 96 h incubation, read-out: Cell Growth Inhibition (IC50) 22Rv1
In short: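 22Rv1 prostate cancer cells (passages 3-8, DMEM with 10% FBS) were seeded at 4000 cells/well with compound, 3-fold dilutions from 10 μM final. After 96 h at 37° C and 5% CO2, growth was read by CellTiter-Glo 2.0 luminescence.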

HL60 = experiment: Cell growth inhibition in HL60; assay type: cell-based; conditions: Homo sapiens, HL-60, HL60 cells; read-out: Cell Growth Inhibition (IC50) HL60

Row | SMILES | Dmax (CBP) | DC50 (CBP; 22Rv1 cells, 5 h) | Dmax (P300; 22Rv1, 5 h) | DC50 (P300; 22Rv1 cells, 5 h) | IC50 (22Rv1 cells) | IC50 (HL60) | Dmax (CBP; 22Rv1 cells, 5 h) | Dmax (P300; 22Rv1 cells, 5 h) | IC50 (22Rv1 cells; 22Rv1, 96 h)
1 | Cn1cc(-c2cc3c(cc2C(F)F)N(c2nn(C4CCN(C(=O)CN5Cc6cc7c(cc6C5)C(=O)N(C5CCC(=O)NC5=O)C7=O)CC4)c4c2CN(C(=O)CF)CC4)CCC3)cn1 (stereo not drawn) [CP-053, 6-(2-(4-(3-(7-(difluoromethyl)-6-(1-methyl-1H-pyrazol-4-yl)-3,4-dihydroquinolin-1(2H)-yl)-5-(2-fluoroacetyl)-4,5,6,7-tetrahydro-1H-pyrazolo[4,3-c]pyridin-1-yl)piperidin-1-yl)-2-oxoethyl)-2-(2,6-dioxopiperidin-3-yl)-6,7-dihydropyrrolo[3,4-f]isoindole-1,3(2H,5H)-dione] | > 70% | < 10 nM | > 50% | < 100 nM | < 1000 nM | < 1000 nM |  |  | 
2 | CC(=O)N1CCc2c(c(N3CCCc4cc(CCC5CC5)c(C(F)F)cc43)nn2C2CCN(C(=O)CN3Cc4cc5c(cc4C3)C(=O)N(C3CCC(=O)NC3=O)C5=O)CC2)C1 (stereo not drawn) [CP-025, 6-(2-(4-(5-acetyl-3-(6-(2-cyclopropylethyl)-7-(difluoromethyl)-3,4-dihydroquinolin-1(2H)-yl)-4,5,6,7-tetrahydro-1H-pyrazolo[4,3-c]pyridin-1-yl)piperidin-1-yl)-2-oxoethyl)-2-(2,6-dioxopiperidin-3-yl)-6,7-dihydropyrrolo[3,4-f]isoindole-1,3(2H,5H)-dione] |  | < 10 nM |  | < 10 nM |  | < 100 nM | < 50% | > 70% | < 1000 nM
3 | CC(=O)N1CCc2c(c(N3CCCc4cc(Cl)c(C(F)F)cc43)nn2C2CCN(C(=O)CN3CCc4cc5c(cc4C3)C(=O)N(C3CCC(=O)NC3=O)C5=O)CC2)C1 (stereo not drawn) [CP-018, 6-(2-(4-(5-acetyl-3-(6-chloro-7-(difluoromethyl)-3,4-dihydroquinolin-1(2H)-yl)-4,5,6,7-tetrahydro-1H-pyrazolo[4,3-c]pyridin-1-yl)piperidin-1-yl)-2-oxoethyl)-2-(2,6-dioxopiperidin-3-yl)-5,6,7,8-tetrahydro-1H-pyrrolo[3,4-g]isoquinoline-1,3(2H)-dione] |  | < 1000 nM |  | > 1000 nM |  | > 10000 nM | < 50% | < 50% | > 10000 nM
4 | CC(=O)N1CCc2c(c(N3CCCc4cc(-c5cccs5)c(C(F)F)cc43)nn2C2CCN(C(=O)CN3Cc4cc5c(cc4C3)C(=O)N(C3CCC(=O)NC3=O)C5=O)CC2)C1 (stereo not drawn) [CP-024, 6-(2-(4-(5-acetyl-3-(7-(difluoromethyl)-6-(thiophen-2-yl)-3,4-dihydroquinolin-1(2H)-yl)-4,5,6,7-tetrahydro-1H-pyrazolo[4,3-c]pyridin-1-yl)piperidin-1-yl)-2-oxoethyl)-2-(2,6-dioxopiperidin-3-yl)-6,7-dihydropyrrolo[3,4-f]isoindole-1,3(2H,5H)-dione] |  | < 10 nM |  | < 10 nM |  | < 100 nM | > 90% | > 70% | < 1000 nM
5 | CC(=O)N1CCc2c(c(N3CCCc4cc(C(C)C)c(C(F)F)cc43)nn2C2CCN(C(=O)CN3Cc4cc5c(cc4C3)C(=O)N(C3CCC(=O)NC3=O)C5=O)CC2)C1 (stereo not drawn) [CP-015, 6-(2-(4-(5-acetyl-3-(7-(difluoromethyl)-6-isopropyl-3,4-dihydroquinolin-1(2H)-yl)-4,5,6,7-tetrahydro-1H-pyrazolo[4,3-c]pyridin-1-yl)piperidin-1-yl)-2-oxoethyl)-2-(2,6-dioxopiperidin-3-yl)-6,7-dihydropyrrolo[3,4-f]isoindole-1,3(2H,5H)-dione] |  | < 10 nM |  | < 10 nM |  | < 100 nM | > 90% | > 70% | < 1000 nM
6 | CC(=O)N1CCc2c(c(N3CCCc4cc(-c5cnn(C)c5)c(C(F)F)cc43)nn2[C@H]2CC[C@H](CN3Cc4cc5c(cc4C3)C(=O)N(C3CCC(=O)NC3=O)C5)CC2)C1 (stereo partly drawn) [CP-048, 3-(6-(((1r,4r)-4-(5-acetyl-3-(7-(difluoromethyl)-6-(1-methyl-1H-pyrazol-4-yl)-3,4-dihydroquinolin-1(2H)-yl)-4,5,6,7-tetrahydro-1H-pyrazolo[4,3-c]pyridin-1-yl)cyclohexyl)methyl)-1-oxo-3,5,6,7-tetrahydropyrrolo[3,4-f]isoindol-2(1H)-yl)piperidine-2,6-dione] |  | < 10 nM |  | < 10 nM |  | < 100 nM | > 90% | > 90% | < 100 nM
7 | CC(=O)N1Cc2c(N3CCCc4cc(-c5ccnn5C)c(C(F)F)cc43)nn(C3CCN(C(=O)CN4Cc5cc6c(cc5C4)C(=O)N(C4CCC(=O)NC4=O)C6=O)CC3)c2C(C)(C)C1 (stereo not drawn) [CP-085, 6-(2-(4-(5-acetyl-3-(7-(difluoromethyl)-6-(1-methyl-1H-pyrazol-5-yl)-3,4-dihydroquinolin-1(2H)-yl)-7,7-dimethyl-4,5,6,7-tetrahydro-1H-pyrazolo[4,3-c]pyridin-1-yl)piperidin-1-yl)-2-oxoethyl)-2-(2,6-dioxopiperidin-3-yl)-6,7-dihydropyrrolo[3,4-f]isoindole-1,3(2H,5H)-dione] |  | < 10 nM |  | > 1000 nM |  | > 10000 nM | > 70% | < 50% | > 10000 nM
8 | CC(=O)N1CCc2c(c(N3CCCc4cc(-c5ccc(F)cc5)c(C(F)F)cc43)nn2C2CCN(C(=O)CN3Cc4cc5c(cc4C3)C(=O)N(C3CCC(=O)NC3=O)C5=O)CC2)C1 (stereo not drawn) [CP-023, 6-(2-(4-(5-acetyl-3-(7-(difluoromethyl)-6-(4-fluorophenyl)-3,4-dihydroquinolin-1(2H)-yl)-4,5,6,7-tetrahydro-1H-pyrazolo[4,3-c]pyridin-1-yl)piperidin-1-yl)-2-oxoethyl)-2-(2,6-dioxopiperidin-3-yl)-6,7-dihydropyrrolo[3,4-f]isoindole-1,3(2H,5H)-dione] |  | < 10 nM |  | < 10 nM |  | < 100 nM | > 90% | > 70% | < 1000 nM
9 | CC(=O)N1CCc2c(c(N3CCCc4cc(Cl)c(C(F)F)cc43)nn2C2CCN(C(=O)CN3Cc4cc5c(cc4C3)C(=O)N(C3CCC(=O)NC3=O)C5=O)CC2)C1 (stereo not drawn) [CP-017, 6-(2-(4-(5-acetyl-3-(6-chloro-7-(difluoromethyl)-3,4-dihydroquinolin-1(2H)-yl)-4,5,6,7-tetrahydro-1H-pyrazolo[4,3-c]pyridin-1-yl)piperidin-1-yl)-2-oxoethyl)-2-(2,6-dioxopiperidin-3-yl)-6,7-dihydropyrrolo[3,4-f]isoindole-1,3(2H,5H)-dione] |  | > 1000 nM |  | > 1000 nM |  | > 10000 nM | < 50% | < 50% | > 10000 nM
10 | Cn1cc(-c2cc3c(cc2C(F)F)N(c2nn(C4CCN(C(=O)CN5Cc6cc7c(cc6C5)C(=O)N(C5CCC(=O)NC5=O)C7=O)CC4)c4c2CN(CC(F)(F)F)CC4)CCC3)cn1 (stereo not drawn) |  | < 1000 nM |  | > 1000 nM |  | < 10000 nM | < 50% | < 50% | > 10000 nM
